Key:
[1] = Evaluation of solubility (saturated solution after reflux and cooling to room temperature); type: physicochemical; settings: refluxed 10 min, cooled to room temperature, left 16 hours, 0.2 μm PTFE filtered
Procedure: The mixture was further stirred for 1 hour and left to stand for 16 hours, and the supernatant was filtered using a 0.2 μm-PTFE filter, to thereby obtain a saturated solution. The saturated solution was dried under reduced pressure, and the solubility of the precursor in each solvent was calculated.

[2] = carboxylic acid as eliminated component; cited from earlier work

Row | Compound | Solubility in THF [1] | Solubility in Anisole [1] | Solubility in Chloroform [1] | Solubility in Toluene [1] | Acidity [2]
1 | O=C(CC(F)(F)F)OC1CCC(OC(=O)CC(F)(F)F)c2cc(-c3ccc4c(c3)sc3c5ccc(-c6ccc7c(c6)C(OC(=O)CC(F)(F)F)CCC7OC(=O)CC(F)(F)F)cc5sc43)ccc21 (stereo not shown) [Compound 16] | A (the solubility is 0.5% by mass or more) | B (the solubility is 0.1% by mass or more to less than 0.5% by mass) | A (the solubility is 0.5% by mass or more) | B (the solubility is 0.1% by mass or more to less than 0.5% by mass) | 
2 | O=C(CC(F)(F)F)OC1CCC(OC(=O)CC(F)(F)F)c2cc(-c3cc4sc(-c5ccc6c(c5)C(OC(=O)CC(F)(F)F)CCC6OC(=O)CC(F)(F)F)cc4s3)ccc21 (stereo not shown) [Compound 13] | A (the solubility is 0.5% by mass or more) | B (the solubility is 0.1% by mass or more to less than 0.5% by mass) | A (the solubility is 0.5% by mass or more) | A (the solubility is 0.5% by mass or more) | 
3 | CC(C)(C)C(=O)OC1CCC(OC(=O)C(C)(C)C)c2cc(-c3cc4sc(-c5ccc6c(c5)C(OC(=O)C(C)(C)C)CCC6OC(=O)C(C)(C)C)cc4s3)ccc21 (stereo not shown) [Compound 12] | A (the solubility is 0.5% by mass or more) | A (the solubility is 0.5% by mass or more) | A (the solubility is 0.5% by mass or more) | A (the solubility is 0.5% by mass or more) | 
4 | O=C(O)CC(F)(F)F [3,3,3-trifluoropropionic acid] |  |  |  |  | 3.0 pKa
5 | c1ccc2cc(-c3cc4sc(-c5ccc6ccccc6c5)cc4s3)ccc2c1 [Compound 17] | D (the solubility is less than 0.005% by mass) | D (the solubility is less than 0.005% by mass) | D (the solubility is less than 0.005% by mass) | D (the solubility is less than 0.005% by mass) | 
6 | CCCCCC(=O)O [caproic acid] |  |  |  |  | 4.6 pKa
7 | c1ccc2cc(-c3cc4cc5sc(-c6ccc7ccccc7c6)cc5cc4s3)ccc2c1 [Compound 18] | D (the solubility is less than 0.005% by mass) | D (the solubility is less than 0.005% by mass) | D (the solubility is less than 0.005% by mass) | D (the solubility is less than 0.005% by mass) | 
8 | O=C(CC(F)(F)F)OC1CCC(OC(=O)CC(F)(F)F)c2cc(-c3cc4cc5sc(-c6ccc7c(c6)C(OC(=O)CC(F)(F)F)CCC7OC(=O)CC(F)(F)F)cc5cc4s3)ccc21 (stereo not shown) [Compound 14] | A (the solubility is 0.5% by mass or more) | A (the solubility is 0.5% by mass or more) | A (the solubility is 0.5% by mass or more) | B (the solubility is 0.1% by mass or more to less than 0.5% by mass) | 
9 | c1ccc2cc(-c3ccc4c(c3)sc3c5ccc(-c6ccc7ccccc7c6)cc5sc43)ccc2c1 [Compound 19] | D (the solubility is less than 0.005% by mass) | D (the solubility is less than 0.005% by mass) | D (the solubility is less than 0.005% by mass) | D (the solubility is less than 0.005% by mass) | 
10 | CC(C)(C)C(=O)O [pivalic acid] |  |  |  |  | 5.0 pKa

From patent US9224959B2, “Method for producing a pi-electron conjugated compound” (Ricoh Company, Ltd., priority 2009, dated 2015)
